Reference: ChEMBL document CHEMBL4340576, “Synthesis of oxadiazole-coupled-thiadiazole derivatives as a potent β-glucuronidase inhibitors and their molecular docking study” (Bioorg Med Chem, 2019)

target: T1, Beta-glucuronidase (Homo sapiens, UniProt P08236)
T1 sequence (P08236 whole entry): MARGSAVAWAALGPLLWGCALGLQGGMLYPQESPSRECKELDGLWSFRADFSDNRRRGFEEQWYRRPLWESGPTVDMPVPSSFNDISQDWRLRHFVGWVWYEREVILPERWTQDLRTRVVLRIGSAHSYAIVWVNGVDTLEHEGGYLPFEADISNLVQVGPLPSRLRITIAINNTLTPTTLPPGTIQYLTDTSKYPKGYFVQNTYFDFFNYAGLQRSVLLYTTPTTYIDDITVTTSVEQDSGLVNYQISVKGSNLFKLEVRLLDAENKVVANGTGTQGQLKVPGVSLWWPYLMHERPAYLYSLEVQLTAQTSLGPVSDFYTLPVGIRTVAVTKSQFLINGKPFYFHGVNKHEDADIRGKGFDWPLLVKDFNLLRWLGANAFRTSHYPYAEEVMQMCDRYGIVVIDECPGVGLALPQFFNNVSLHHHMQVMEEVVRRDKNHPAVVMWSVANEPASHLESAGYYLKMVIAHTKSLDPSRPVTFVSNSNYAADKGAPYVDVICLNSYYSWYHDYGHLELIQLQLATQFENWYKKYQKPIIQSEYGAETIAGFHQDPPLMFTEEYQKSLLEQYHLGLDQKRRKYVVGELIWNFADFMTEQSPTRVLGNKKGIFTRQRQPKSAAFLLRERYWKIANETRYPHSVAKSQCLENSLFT
Description: Inhibition of human beta-glucuronidase pre-incubated for 30 mins before p-nitrophenyl-beta-D-glucuronide substrate addition by spectrophotometry

IC50	SMILES
Not Active	COc1cc(O)ccc1-c1nnc(-c2ccc(-c3nnc(-c4cccnc4)s3)cc2)o1
Not Active	COc1cc(O)ccc1-c1nnc(-c2ccc(-c3nnc(-c4cccc(C)c4)s3)cc2)o1
Not Active	COc1cc(O)ccc1-c1nnc(-c2ccc(-c3nnc(-c4ccncc4)s3)cc2)o1
Not Active	COc1cc(O)ccc1-c1nnc(-c2ccc(-c3nnc(-c4cccc([N+](=O)[O-])c4)s3)cc2)o1
